Results: US12384770B2, “Heterocyclic compound” (Takeda Pharmaceutical Company Limited, priority 2019, dated 2025)

Target: T1, HDAC6 enzyme (Homo sapiens, UniProt Q9UBN7)
T1 construct: HDAC6 enzyme prepared by transducing full length HDAC6 gene into Sf-9 insect cells; GST; purchased SignalChem; host or cells: Sf-9 insect cells
T1 sequence (Q9UBN7 1-1215): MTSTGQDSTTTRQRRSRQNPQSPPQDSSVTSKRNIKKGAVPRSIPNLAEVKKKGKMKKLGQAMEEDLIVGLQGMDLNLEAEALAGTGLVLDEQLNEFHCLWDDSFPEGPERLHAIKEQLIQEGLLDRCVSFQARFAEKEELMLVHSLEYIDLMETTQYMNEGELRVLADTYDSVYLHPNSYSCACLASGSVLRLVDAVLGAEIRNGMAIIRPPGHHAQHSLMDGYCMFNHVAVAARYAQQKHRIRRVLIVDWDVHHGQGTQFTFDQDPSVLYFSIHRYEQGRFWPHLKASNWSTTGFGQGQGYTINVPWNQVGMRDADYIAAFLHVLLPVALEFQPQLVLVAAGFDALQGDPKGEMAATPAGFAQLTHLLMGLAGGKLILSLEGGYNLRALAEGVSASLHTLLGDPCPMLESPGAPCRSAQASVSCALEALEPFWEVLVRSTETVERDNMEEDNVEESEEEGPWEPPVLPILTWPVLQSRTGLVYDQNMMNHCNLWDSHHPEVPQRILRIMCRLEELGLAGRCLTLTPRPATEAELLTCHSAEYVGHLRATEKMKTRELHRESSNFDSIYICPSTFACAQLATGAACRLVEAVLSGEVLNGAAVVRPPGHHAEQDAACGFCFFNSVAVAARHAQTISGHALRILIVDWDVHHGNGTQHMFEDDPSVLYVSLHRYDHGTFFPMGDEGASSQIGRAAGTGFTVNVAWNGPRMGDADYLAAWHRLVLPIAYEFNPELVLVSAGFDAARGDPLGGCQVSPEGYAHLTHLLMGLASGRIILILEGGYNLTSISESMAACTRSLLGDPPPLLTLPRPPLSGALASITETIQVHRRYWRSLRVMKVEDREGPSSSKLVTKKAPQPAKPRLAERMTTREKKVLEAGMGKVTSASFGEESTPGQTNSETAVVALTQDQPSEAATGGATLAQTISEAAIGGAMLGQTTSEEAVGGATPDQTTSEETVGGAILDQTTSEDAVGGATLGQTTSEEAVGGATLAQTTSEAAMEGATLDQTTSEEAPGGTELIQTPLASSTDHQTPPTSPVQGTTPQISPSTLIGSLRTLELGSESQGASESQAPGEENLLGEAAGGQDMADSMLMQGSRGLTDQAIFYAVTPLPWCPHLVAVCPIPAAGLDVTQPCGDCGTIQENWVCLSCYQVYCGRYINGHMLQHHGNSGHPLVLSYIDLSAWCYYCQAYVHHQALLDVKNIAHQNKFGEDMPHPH
Test: HDAC6 enzyme inhibitory assay (HDAC-Glo I/II Assay kit)
Format: biochemical
Details: wells without enzyme = 100% inhibition; for inhibition at 10 µM: read-out: HDAC6 inhibitory rate (%) (10 μM)
Outline: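 Full-length GST-purified HDAC6 from Sf-9 cells preincubated with compound 60 min at room temperature in Tris-HCl pH 7.5 buffer with MgCl2, KCl, NaCl, glutathione, Tween-20. Substrate-developer reaction 20 min, luminescence read; no-enzyme wells set as 100% inhibition.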

Row | SMILES | inhibition at 10 µM [%] | HDAC6 inhibitory rate (%) (10 μM) | other results
1 | O=C1c2cc(-c3nnc(C(F)F)o3)ccc2CN1[C@H](c1cnccn1)[C@@H](O)c1cccc(F)c1 (single isomer, unassigned) [Example 100, 6-[5-(difluoromethyl)-1,3,4-oxadiazol-2-yl]-2-[(1R*,2S*)-2-(3-fluorophenyl)-2-hydroxy-1-(pyrazin-2-yl)ethyl]-2,3-dihydro-1H-isoindol-1-one] | 100 | – | –
2 | O=C1c2cc(-c3nnc(C(F)F)o3)ccc2CN1[C@H](c1cccc(F)n1)[C@@H](O)c1ccccn1 (single isomer, unassigned) [Example 76, 6-[5-(difluoromethyl)-1,3,4-oxadiazol-2-yl]-2-[(1R*,2R*)-1-(6-fluoropyridin-2-yl)-2-hydroxy-2-(pyridin-2-yl)ethyl]-2,3-dihydro-1H-isoindol-1-one] | – | – | HDAC6 inhibitory rate (%) (10 μM) (10 µM): 100%
3 | O=C1c2cc(-c3nnc(C(F)F)o3)ccc2CN1[C@H](c1cnccn1)[C@@H](O)c1ccc(F)cc1 (single isomer, unassigned) [Example 99, 6-[5-(difluoromethyl)-1,3,4-oxadiazol-2-yl]-2-[(1R*,2S*)-2-(4-fluorophenyl)-2-hydroxy-1-(pyrazin-2-yl)ethyl]-2,3-dihydro-1H-isoindol-1-one] | – | 100 | –
4 | O=C1c2cc(-c3nnc(C(F)F)o3)ccc2CN1[C@H](C1CCOCC1)[C@@H](O)c1cccc(Cl)c1 (single isomer, unassigned) [Example 71, 2-[(1R*,2S*)-2-(3-chlorophenyl)-2-hydroxy-1-(oxan-4-yl)ethyl]-6-[5-(difluoromethyl)-1,3,4-oxadiazol-2-yl]-2,3-dihydro-1H-isoindol-1-one] | – | 101 | –
5 | O=C1c2cc(-c3nnc(C(F)F)o3)ccc2CN1[C@@H](c1ccc(F)cc1F)[C@@H](O)c1ccc(F)cc1 (racemic) [Example 146, 6-[5-(difluoromethyl)-1,3,4-oxadiazol-2-yl]-2-[(1SR,2SR)-1-(2,4-difluoro-phenyl)-2-(4-fluorophenyl)-2-hydroxy-ethyl]-2,3-dihydro-1H-isoindol-1-one] | 95 | – | –
6 | N#Cc1cccc([C@H]([C@@H](O)c2ccccc2)N2Cc3ccc(-c4nnc(C(F)F)o4)cc3C2=O)c1 (racemic) [Example 40, 3-[(1RS,2SR)-1-{6-[5-(difluoromethyl)-1,3,4-oxadiazol-2-yl]-1-oxo-1,3-dihydro-2H-isoindol-2-yl}-2-hydroxy-2-phenylethyl]benzonitrile] | 100 | – | –

Second part, led by results:

Row | inhibition at 10 µM [%] | HDAC6 inhibitory rate (%) (10 μM) | SMILES | other results
7 | 99 | – | O=C1c2cc(-c3nnc(C(F)F)o3)ccc2CN1[C@H](c1cccc(F)n1)[C@@H](O)c1ccccn1 (single isomer, unassigned) [Example 75, 6-[5-(difluoromethyl)-1,3,4-oxadiazol-2-yl]-2-[(1R*,2R*)-1-(6-fluoropyridin-2-yl)-2-hydroxy-2-(pyridin-2-yl)ethyl]-2,3-dihydro-1H-isoindol-1-one] | –
8 | – | 100 | O=C1c2cc(-c3nnc(C(F)F)o3)ccc2CN1[C@H](c1cnccn1)[C@@H](O)c1cccc(F)c1 (single isomer, unassigned) [Example 101, 6-[5-(difluoromethyl)-1,3,4-oxadiazol-2-yl]-2-[(1R*,2S*)-2-(3-fluorophenyl)-2-hydroxy-1-(pyrazin-2-yl)ethyl]-2,3-dihydro-1H-isoindol-1-one] | –
9 | 101 | – | O=C1c2cc(-c3nnc(C(F)F)o3)ccc2CN1[C@H](c1cccc(F)n1)[C@@H](O)c1ccc(F)cn1 (single isomer, unassigned) [Example 126, 6-[5-(difluoromethyl)-1,3,4-oxadiazol-2-yl]-2-[(1R*,2R*)-2-(5-fluoropyridin-2-yl)-1-(6-fluoropyridin-2-yl)-2-hydroxyethyl]-2,3-dihydro-1H-isoindol-1-one] | –
10 | 100 | – | O=C1c2cc(-c3nnc(C(F)F)o3)ccc2CN1[C@H](c1ccccn1)[C@@H](O)c1ccccc1 (single isomer, unassigned) [Example 102, 6-[5-(difluoromethyl)-1,3,4-oxadiazol-2-yl]-2-[(1R*,2S*)-2-hydroxy-2-phenyl-1-(pyridin-2-yl)ethyl]-2,3-dihydro-1H-isoindol-1-one] | –
